Measurements as given in ChEMBL document CHEMBL1909046, “DrugMatrix in vitro pharmacology data”.

Experiments:
[1] = target: C-C chemokine receptor type 5 (Homo sapiens, UniProt P51681); format: cell membranes, Membrane; conditions: hek293
[2] = target: T1, 3-hydroxy-3-methylglutaryl-coenzyme A reductase (Homo sapiens, UniProt P04035); set-up: species or system Escherichia coli;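 also: enzyme inhibition assay of HMG-CoA reductase using radiolabeled [14C]HMG-CoA as substrate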
T1 sequence (P04035 whole entry): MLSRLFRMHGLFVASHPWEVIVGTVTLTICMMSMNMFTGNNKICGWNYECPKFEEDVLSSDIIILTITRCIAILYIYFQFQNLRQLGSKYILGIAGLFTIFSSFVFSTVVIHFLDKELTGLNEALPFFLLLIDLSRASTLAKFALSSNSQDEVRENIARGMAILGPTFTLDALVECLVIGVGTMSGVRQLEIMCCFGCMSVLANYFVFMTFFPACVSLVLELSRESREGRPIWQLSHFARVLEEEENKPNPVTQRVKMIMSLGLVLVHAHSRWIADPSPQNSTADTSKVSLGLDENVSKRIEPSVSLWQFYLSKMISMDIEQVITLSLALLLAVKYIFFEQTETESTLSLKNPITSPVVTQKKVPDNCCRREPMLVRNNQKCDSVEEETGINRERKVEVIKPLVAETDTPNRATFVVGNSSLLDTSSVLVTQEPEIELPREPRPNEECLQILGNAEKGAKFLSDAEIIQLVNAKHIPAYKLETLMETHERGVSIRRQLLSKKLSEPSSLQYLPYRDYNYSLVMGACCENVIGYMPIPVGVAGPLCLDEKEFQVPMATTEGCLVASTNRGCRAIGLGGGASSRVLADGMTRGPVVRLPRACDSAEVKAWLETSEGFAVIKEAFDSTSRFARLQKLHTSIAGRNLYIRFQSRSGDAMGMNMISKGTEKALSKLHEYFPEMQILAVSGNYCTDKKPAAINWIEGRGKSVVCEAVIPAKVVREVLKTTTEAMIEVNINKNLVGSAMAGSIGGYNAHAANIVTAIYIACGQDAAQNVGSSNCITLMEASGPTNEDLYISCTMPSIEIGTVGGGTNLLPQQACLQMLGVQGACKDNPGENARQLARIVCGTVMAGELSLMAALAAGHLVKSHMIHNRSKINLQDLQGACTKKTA

[3] = target: T2, C-X-C chemokine receptor type 2 (Homo sapiens, UniProt P25025); format: cell membranes, Membrane; conditions: cho-k1
T2 sequence (P25025 whole entry): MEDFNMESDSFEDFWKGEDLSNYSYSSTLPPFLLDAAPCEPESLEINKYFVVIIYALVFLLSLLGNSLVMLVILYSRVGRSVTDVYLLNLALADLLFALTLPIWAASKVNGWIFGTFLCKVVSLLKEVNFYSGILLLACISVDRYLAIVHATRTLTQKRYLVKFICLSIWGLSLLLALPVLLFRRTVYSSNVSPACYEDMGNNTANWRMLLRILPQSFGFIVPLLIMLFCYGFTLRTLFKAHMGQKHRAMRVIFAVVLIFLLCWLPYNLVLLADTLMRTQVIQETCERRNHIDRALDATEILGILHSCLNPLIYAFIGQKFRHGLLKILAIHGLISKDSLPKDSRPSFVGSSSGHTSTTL

Neutrophil elastase = target: T3, Neutrophil elastase (Homo sapiens, UniProt P08246); format: tissue-based;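 also: inhibition of neutrophil elastase enzyme activity, measured with a p-nitroanilide-linked peptide substrate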
T3 sequence (P08246 whole entry): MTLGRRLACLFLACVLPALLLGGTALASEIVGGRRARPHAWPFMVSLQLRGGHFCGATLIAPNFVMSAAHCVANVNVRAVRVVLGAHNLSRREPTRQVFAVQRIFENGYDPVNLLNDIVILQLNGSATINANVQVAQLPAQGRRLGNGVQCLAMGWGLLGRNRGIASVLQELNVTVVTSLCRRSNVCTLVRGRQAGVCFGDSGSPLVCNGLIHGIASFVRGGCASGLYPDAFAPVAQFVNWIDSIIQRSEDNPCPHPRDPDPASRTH

[4] = target: 5-hydroxytryptamine receptor 6 (Homo sapiens, UniProt P50406); format: cell membranes, HeLa, Membrane; conditions: hela
5-hydroxytryptamine receptor 6, sequence (P50406 whole entry): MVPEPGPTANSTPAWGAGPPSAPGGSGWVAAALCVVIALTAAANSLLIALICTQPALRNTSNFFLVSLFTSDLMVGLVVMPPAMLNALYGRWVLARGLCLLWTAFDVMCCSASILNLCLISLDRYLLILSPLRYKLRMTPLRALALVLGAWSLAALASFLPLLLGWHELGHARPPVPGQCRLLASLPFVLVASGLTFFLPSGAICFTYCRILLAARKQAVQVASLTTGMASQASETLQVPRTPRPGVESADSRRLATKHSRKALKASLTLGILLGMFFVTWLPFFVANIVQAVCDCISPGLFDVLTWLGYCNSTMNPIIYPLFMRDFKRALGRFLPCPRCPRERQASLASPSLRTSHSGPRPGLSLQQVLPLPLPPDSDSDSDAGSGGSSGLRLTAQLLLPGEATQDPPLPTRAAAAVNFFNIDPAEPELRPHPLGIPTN

[5] = target: T4, C-C chemokine receptor type 4 (Homo sapiens, UniProt P51679); format: cell membranes, Membrane; conditions: chem-1
T4 sequence (P51679 whole entry): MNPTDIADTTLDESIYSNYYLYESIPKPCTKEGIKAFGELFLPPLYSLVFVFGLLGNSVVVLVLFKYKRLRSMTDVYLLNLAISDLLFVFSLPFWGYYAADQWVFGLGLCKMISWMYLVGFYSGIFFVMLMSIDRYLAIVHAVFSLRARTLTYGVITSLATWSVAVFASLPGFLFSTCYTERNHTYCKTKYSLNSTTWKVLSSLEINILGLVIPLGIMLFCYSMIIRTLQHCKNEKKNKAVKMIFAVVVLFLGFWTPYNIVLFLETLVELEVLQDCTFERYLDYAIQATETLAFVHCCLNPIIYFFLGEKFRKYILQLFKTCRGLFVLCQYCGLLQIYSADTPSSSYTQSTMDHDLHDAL

Measured: IC50
Also: in other assays of this panel Not Active means under 50% inhibition at 10 µM.

C-C chemokine receptor type 5, sequence (P51681 whole entry): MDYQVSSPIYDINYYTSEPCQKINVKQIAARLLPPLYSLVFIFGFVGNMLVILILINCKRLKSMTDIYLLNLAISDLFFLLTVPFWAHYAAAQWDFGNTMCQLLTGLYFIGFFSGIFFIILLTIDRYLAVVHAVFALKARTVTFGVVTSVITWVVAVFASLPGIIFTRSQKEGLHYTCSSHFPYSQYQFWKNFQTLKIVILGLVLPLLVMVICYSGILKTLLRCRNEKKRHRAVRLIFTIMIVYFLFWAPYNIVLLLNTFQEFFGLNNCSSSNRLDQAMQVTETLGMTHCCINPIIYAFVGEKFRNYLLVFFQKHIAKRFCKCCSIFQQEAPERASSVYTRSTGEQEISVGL

CN(C)CC[C@@H](c1ccc(Cl)cc1)c1ccccn1 [DEXCHLORPHENIRAMINE]
Not Active: all assays above

C[C@H]1O[C@@H](n2cc(F)c(=O)[nH]c2=O)[C@H](O)[C@@H]1O [DOXIFLURIDINE]
Not Active: all assays above

Cn1c(=O)c2c(ncn2CC(O)CO)n(C)c1=O (stereo unspecified) [DYPHYLLINE]
Not Active: all assays above

CC[C@H]1CN2CCc3cc(OC)c(OC)cc3[C@@H]2C[C@@H]1C[C@H]1NCCc2cc(OC)c(OC)cc21 [EMETINE]
Not Active: all assays above

COC(=O)CCc1ccc(OCC(O)CNC(C)C)cc1 (stereo unspecified) [ESMOLOL]
Not Active: all assays above

CCC1(C)CC(=O)NC1=O (stereo unspecified) [ETHOSUXIMIDE]
Not Active: all assays above

C#C[C@]1(OC(C)=O)CC[C@H]2[C@@H]3CCC4=C[C@@H](OC(C)=O)CC[C@@H]4[C@H]3CC[C@@]21C [ETHYNODIOL DIACETATE]
Not Active: all assays above

COc1cc([C@@H]2c3cc4c(cc3[C@@H](O[C@@H]3O[C@@H]5CO[C@@H](C)O[C@H]5[C@H](O)[C@H]3O)[C@H]3COC(=O)[C@H]23)OCO4)cc(OC)c1O [ETOPOSIDE]
Not Active: all assays above

C=CCc1ccc(O)c(OC)c1 [EUGENOL]
Not Active: all assays above

CC(C(=O)O)c1cccc(Oc2ccccc2)c1 (stereo unspecified) [FENOPROFEN]
Not Active: all assays above

CC(C)(C)NC(=O)[C@H]1CC[C@H]2[C@@H]3CC[C@H]4NC(=O)C=C[C@]4(C)[C@H]3CC[C@]12C [FINASTERIDE]
Not Active: all assays above

Nc1ccn([C@@H]2O[C@H](CO)[C@@H](O)C2(F)F)c(=O)n1 [GEMCITABINE]
Not Active: all assays above

N=C(N)NC(=O)Cc1c(Cl)cccc1Cl [GUANFACINE]
Not Active: all assays above

Oc1c(Cl)cc(Cl)c(Cl)c1Cc1c(O)c(Cl)cc(Cl)c1Cl [HEXACHLOROPHENE]
Not Active: all assays above

NNc1nncc2ccccc12 [HYDRALAZINE]
Not Active: all assays above

CC(=O)[C@@]1(O)CC[C@H]2[C@@H]3CCC4=CC(=O)CC[C@]4(C)[C@H]3CC[C@@]21C [HYDROXYPROGESTERONE]
Not Active: all assays above

Cc1c(OCC(F)(F)F)ccnc1C[S+]([O-])c1nc2ccccc2[nH]1 (stereo unspecified) [LANSOPRAZOLE]
Not Active: all assays above

COc1ccc2[nH]cc(CCNC(C)=O)c2c1 [MELATONIN]
Not Active: all assays above

NC(=O)C[S+]([O-])C(c1ccccc1)c1ccccc1 (stereo unspecified) [MODAFINIL]
Not Active: all assays above

O=C(O)c1cccnc1Nc1cccc(C(F)(F)F)c1 [NIFLUMIC ACID]
Not Active: all assays above

O=C(N/N=C/c1ccc([N+](=O)[O-])o1)c1cc([N+](=O)[O-])cc([N+](=O)[O-])c1O [NIFURSOL]
Not Active: all assays above
